According to ChEMBL document CHEMBL5104128, “The discovery of a non-competitive GOT1 inhibitor, hydralazine hydrochloride, via a coupling reaction-based high-throughput screening assay” (Bioorg Med Chem Lett, 2022):
Counter-ions that a name gives are not always drawn. Blank lines part the entries; values can stand above or below the compound they belong to.

Columns and labels:
[1] = target: T1, Aspartate aminotransferase, cytoplasmic (Homo sapiens, UniProt P17174); test: Inhibition of GOT1 (unknown origin) using aspartic acid and alpha-ketoglutaric acid as substrates assessed as reduction in absorbance of NADH incubated for 20 mins in presence of MDH1 and NADH by HTS assay
[2] = target: T1, Aspartate aminotransferase, cytoplasmic; test: Inhibition of human recombinant GOT1 using aspartic acid and alpha-ketoglutaric acid as substrates incubated in presence of MDH1 and NADH
[3] = target: T1, Aspartate aminotransferase, cytoplasmic; test: Inhibition of GOT1 (unknown origin)
[4] = target: T1, Aspartate aminotransferase, cytoplasmic; test: Inhibition of C-terminal His6-tagged human recombinant GOT1 expressed in Escherichia coli BL21 (DE3) cells using aspartic acid and alpha-ketoglutaric acid as substrates incubated in presence of MDH1 and NADH
[5] = target: T1, Aspartate aminotransferase, cytoplasmic; test: Noncompetitive inhibition of GOT1 (unknown origin) using alpha-Ketoglutaric acid as substrate assessed as inhibition constant by Michaelis-Menten equation based kinetic analysis
[6] = target: T1, Aspartate aminotransferase, cytoplasmic; test: Noncompetitive inhibition of GOT1 (unknown origin) using aspartic acid as substrate assessed as inhibition constant by Michaelis-Menten equation based kinetic analysis
[7] = target: T1, Aspartate aminotransferase, cytoplasmic; test: Binding affinity to GOT1 (unknown origin) assessed as dissociation constant by microscale thermophoresis assay

T1 sequence (P17174 whole entry): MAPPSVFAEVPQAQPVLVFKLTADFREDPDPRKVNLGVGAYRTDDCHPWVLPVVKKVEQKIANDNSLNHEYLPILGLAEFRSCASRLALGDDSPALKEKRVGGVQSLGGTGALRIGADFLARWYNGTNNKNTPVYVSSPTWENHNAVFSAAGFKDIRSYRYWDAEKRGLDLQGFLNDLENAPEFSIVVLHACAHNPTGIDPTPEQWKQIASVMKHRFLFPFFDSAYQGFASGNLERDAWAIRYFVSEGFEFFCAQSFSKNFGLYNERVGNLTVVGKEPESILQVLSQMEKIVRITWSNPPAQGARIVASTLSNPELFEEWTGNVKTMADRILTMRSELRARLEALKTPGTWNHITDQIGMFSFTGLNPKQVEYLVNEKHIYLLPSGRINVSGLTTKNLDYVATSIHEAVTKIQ

IC50 [1]: > 100 µM
SMILES: Nc1cccc2cnncc12

IC50 [1]: > 100 µM
SMILES: Nc1cccnn1

IC50 [1]: 29.4 µM
SMILES: NNc1cccnn1

IC50 [2]: 2.92 µM
SMILES: CC(C)=CCc1cc(/C=C2\OC(=O)C(c3cc(CC=C(C)C)c(O)cc3O)=C2O)ccc1O

IC50 [1]: 65.4 µM
SMILES: NNc1nnc(Cl)c2ccccc12

IC50 [3]: 8 µM
SMILES: NC1Cc2ccccc2N(O)C1=O (centres undefined)

IC50 [4]: 21.8 µM
SMILES: COc1ccc(-c2ccc3cc(C(=O)O)ccc3c2)cc1C12CC3CC(CC(C3)C1)C2 [ADAPALENE]

IC50 [1]: > 100 µM
SMILES: NNc1nnc(NN)c2ccccc12 [DIHYDRALAZINE]

Ki [5]: 20.2 µM
IC50 [3]: 26.6 µM
Ki [6]: 14.7 µM
Kd [7]: 16.5 µM
SMILES: NNc1nncc2ccccc12 [HYDRALAZINE HYDROCHLORIDE]

IC50 [1]: 26.6 µM
SMILES: NNc1nncc2ccccc12 [HYDRALAZINE]

IC50 [3]: 5.39 µM
SMILES: O=C1Cc2cc(CCN3CCN(c4nsc5ccccc45)CC3)c(Cl)cc2N1 [ZIPRASIDONE]
